We go through four compounds from patent US20210386841A1, “COMPOSITIONS FOR TRANSFECTING mRNA INTO A CELL AND THEIR APPLICATIONS” (POLYPLUS TRANSFECTION, priority 2018, published 2021).

Data set [1] deals with THP-1 human peripheral blood monocyte cells. Description: eGFP mRNA transfection, THP-1 cells (96-well). The format is cell-based. To be noted: co-lipid DOPE, ratio 1/2; 150 ng eGFP mRNA; 24 h. The method, then:
THP-1 (ATCC® TIB-202™) human peripheral blood monocyte cells were grown in RPMI-1640 with 10% FBS and supplemented with 10 mM HEPES buffer, 1 mM sodium pyruvate, 0.05 mM 2-mercaptoethanol, 2 mM glutamine, 100 U/mL of penicillin and 100 μg/mL of streptomycin at 37° C. in a 5% CO2 in air atmosphere.
(§1) mRNA eGFP (996 nt, reference L-6101) from TriLink Technologies was used for the in vitro transfection experiments and expressed enhanced green fluorescent protein which is a common reporter gene (eGFP). This mRNA was capped with a Cap 0, polyadenylated and modified with 5-methylcytidine and pseudo-uridine.
(§2) One day before transfection, Caco-2, THP-1 or BJ Cells were seeded at 10 000, 25 000, or 5 000 cells per well (96-well plate format), respectively, in 125 μL of their respective complete medium and incubated at 37° C. in a 5% CO2 in air atmosphere. For Jurkat cells, 25 000 cells were seeded per well prior transfection. On the day of transfection 150 ng of mRNA was added in 11.5 μL of 5% glucose solution, mixed with a vortex and incubated for 5 minutes at rt. Then, 1 μL of 1 mM cationic liposomal formulation was added onto the diluted mRNA, mixed with a vortex and incubated for 15 minutes at rt. The formulated mRNA solution (12.5 μL) was added into the well and the plate was incubated for 24 hours at 37° C. in a 5% CO2 in air atmosphere.
(§3) For the GFP expression analysis, the cell culture medium was removed for the adherent cells and 50 μL of trypsin-EDTA (1×, Lonza) was added and the plate was incubated for 5 minutes at 37° C. 150 μL of complete medium were added to neutralize the trypsin, and the GFP expression was analysed (2000 events) by flow cytometry (Exc 488 nm, Em 520 nm) using a Guava easyCyte 6HT cytometer (Millipore).
(§4) All these new liposomal formulations (Table 1) were assessed to deliver mRNA expressing an enhanced green fluorescent protein (eGFP) as reporter gene in order to determine the gene expression and the transfection efficiency (Table 2). mRNA eGFP capped with a Cap 0 in 5′-end, polyadenylated in 3′-end and modified with 5-methylcytidine and pseudo-uridine was used in the transfection assay. The transfection assay was performed as described in the Experimental section where 150 ng of mRNA eGFP was complexed with 1 μL of 1 mM cationic liposomal formulations in a 5% glucose solution before the addition on the cells. One day post-transfection, the eGFP expression was analyzed by flow cytometry to determine the percentage of transfection. Four different cell lines were used in this assay from easy to transfect cells to hard to transfect cells with plasmid DNA, including human BJ skin fibroblast cells, THP-1 human peripheral blood monocytes, Caco-2 human colon epithelial cells and Jurkat Clone E6-1 human T lymphoblast cells, respectively.

In data set [2] the test system is BJ human skin fibroblast cells. The experiment in a line: eGFP mRNA transfection, BJ cells (96-well). The format is cell-based. To be noted: co-lipid DOPE, ratio 1/2; 150 ng eGFP mRNA; 24 h. Here is the method:
BJ (ATCC® CRL-2522™) human skin fibroblast cells were grown in Eagle's Minimum Essential Medium with 10% FBS and supplemented with 1% non-essential amino acids, 1 mM sodium pyruvate, 2 mM glutamine and 100 U/mL of penicillin and 100 μg/mL of streptomycin at 37° C. in a 5% CO2 in air atmosphere.
as §1, §2, §3, §4

Data set [3] deals with Caco-2 human colon epithelial cells. The experiment in a line: eGFP mRNA transfection, Caco-2 cells (96-well). To be noted: co-lipid DOPE, ratio 1/2; 150 ng eGFP mRNA; 24 h. The format is cell-based. The method, then: Caco-2 (ATCC® HTB-37™) human colon epithelial cells were grown in DMEM 4.5 g/L glucose with 20% FBS supplemented with 1% non-essential amino acids, 1 mM sodium pyruvate, 2 mM glutamine and 100 U/mL of penicillin and 100 μg/mL of streptomycin at 37° C. in a 5% CO2 in air atmosphere.
as §1, §2, §3, §4

Data set [4] relates to Jurkat Clone E6-1 human T lymphoblast cells. The experiment in a line: eGFP mRNA transfection, Jurkat cells (96-well). The format is cell-based. To be noted: co-lipid DOPE, ratio compound/co-lipid 1/2; 150 ng eGFP mRNA, 1 μL of 1 mM formulation; 24 h, flow cytometry. Here is the method:
Jurkat Clone E6-1 (ATCC® TIB-152™) human T lymphoblast cells were grown in RPMI-1640 (LONZA) with 10% of FBS (EUROBIO) and supplemented with 2 mM Glutamine (LONZA), 100 U/mL of penicillin and 100 μg/mL of streptomycin (LONZA) at 37° C. in a 5% CO2 in air atmosphere.
as §1, §2, §3, §4

In data set [5] the test system is BJ, THP-1, Caco-2 and Jurkat cells. The experiment in a line: eGFP mRNA transfection, overall statements on the four cell lines. The format is cell-based, human. To be noted: formulated with co-lipid DOPE or DPyPE. Here is the method: as §1, §2, §3, §4

For the compound `CCCCCCCCCCCCCCCCCCC(CCCCC(CCCCCCCCCCCCCC)CCCCCCCCCCCCCC)[n+]1ccn(CCO)c1.[Cl-]` (centres unmarked) [Compound W25.7, 1-(2-hydroxyethyl)-3-(24-tetradecyloctatriacontan-19-yl)-1H-imidazol-3-ium chloride], in data set [1], the “Transfection efficiency (eGFP %) THP-1” value was 80-85%. The “Transfection efficiency (eGFP %) BJ” value in data set [2] is recorded as 90-95%. Moreover, the “Transfection efficiency (eGFP %) CaCO2” value in data set [3] is given as 45-55%. The “Transfection efficiency (eGFP %) Jurkat” value in data set [4] is recorded as 25-35%. Further, in data set [5], the “transfection activity (in words)” value is reported as “without really affecting the transfection activity”.

Regarding `CCCCCCCCCCCCCCC(CCCCCCCCCCCCCC)CCCCC(CCCCCCCCCCCCCC)[n+]1ccn(CCO)c1.[Cl-]` (centres unmarked) [Compound W26.7, 1-(2-hydroxyethyl)-3-(20-tetradecyltetratriacontan-15-yl)-1H-imidazol-3-ium chloride], the “Transfection efficiency (eGFP %) THP-1” value in data set [1] is given as 70-80%. Also, the “Transfection efficiency (eGFP %) BJ” value in data set [2] is recorded as 90-95%. Besides, the “Transfection efficiency (eGFP %) CaCO2” value in data set [3] is given as 50-55%. The “Transfection efficiency (eGFP %) Jurkat” value in data set [4] is 10-15%. Also, the “transfection activity (in words)” value in data set [5] is given as “without really affecting the transfection activity”.

Regarding `CCCCCCCCCCCCCCCCCCC(CCCC(CCCCCCCCCCCCCC)CCCCCCCCCCCCCC)[n+]1ccn(C)c1.[Cl-]` (centres unmarked) [Compound W28.7, 1-methyl-3-(15-tetradecylheptatriacontan-19-yl)-1H-imidazol-3-ium chloride], the “Transfection efficiency (eGFP %) THP-1” value in data set [1] is recorded as 80-85%. For the same compound, in data set [2], the “Transfection efficiency (eGFP %) BJ” value was 90-95%. The “Transfection efficiency (eGFP %) CaCO2” value in data set [3] is 40-45%. Moreover, the “Transfection efficiency (eGFP %) Jurkat” value in data set [4] is on record as 15-25%. Also, the “transfection activity (in words)” value in data set [5] was “without really affecting the transfection activity”.

Regarding `CCCCCCCC/C=C\CCCCCCCCC(CCCCC(CCCCCCCCCCCCCC)CCCCCCCCCCCCCC)[n+]1ccn(CC)c1.[Cl-]` (centres unmarked) [Compound W27.7, 1-ethyl-3-(24-tetradecyloctatriacont-9-en-19-yl)-1H-imidazol-3-ium chloride], the “Transfection efficiency (eGFP %) THP-1” value in data set [1] is 40-50%. Moreover, the “Transfection efficiency (eGFP %) BJ” value in data set [2] is reported as 90-95%. For the same compound, the “Transfection efficiency (eGFP %) CaCO2” value in data set [3] was 65-75%. Besides, the “Transfection efficiency (eGFP %) Jurkat” value in data set [4] was 5-10%. The “transfection activity (in words)” value in data set [5] is “without really affecting the transfection activity”.
